pIC50: −log10 of the molar value. Non-standard residues stand in square brackets, D forms with d. Residues, ends and D or L forms follow the SMILES beside them. NEtPhe(4-F) = CCN[C@@H](Cc1ccc(F)cc1)C(=O)O; Ala(4-thiazolyl) = N[C@@H](Cc1cscn1)C(=O)O; NMePhe(4-F) = CN[C@@H](Cc1ccc(F)cc1)C(=O)O; Phe(4-Cl) = N[C@@H](Cc1ccc(Cl)cc1)C(=O)O; Phe(4-F) = N[C@@H](Cc1ccc(F)cc1)C(=O)O; NMeF = CN[C@@H](Cc1ccccc1)C(=O)O; Tle = CC(C)(C)[C@H](N)C(=O)O; NMeV = CN[C@H](C(=O)O)C(C)C; hSer = N[C@@H](CCO)C(=O)O; NMeA = CN[C@@H](C)C(=O)O; dNMeA = CN[C@H](C)C(=O)O; Abu = CC[C@H](N)C(=O)O; Nme = COCCNCC(=O)O
What was measured:
Human MDM4 (HDM4) 1-114 = biological target: T1, Human MDM4 (HDM4) 1-114 (Homo sapiens, UniProt O15151); assay: Fluorescence polarization assay 2, MDM4 (Table 4); assay type: binding; details: Table 4; fluorescence polarization; read-out: MDM4 IC50
T1 construct: Human MDM4 (HDM4) 1-114
T1 sequence (O15151 1-114): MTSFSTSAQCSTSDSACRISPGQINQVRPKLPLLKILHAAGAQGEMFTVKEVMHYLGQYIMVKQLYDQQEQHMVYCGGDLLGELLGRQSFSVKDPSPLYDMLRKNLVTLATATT
Method: (§1) Compounds dissolved in DMSO were pin transferred (˜100-200 nL) to the 384 well plate containing the MDM4/p53 solution. After incubation for 60 minutes, the fluorescence polarization was read on a Molecular Devices SpectraMax plate reader equipped with a Fluorescein FP cartridge. In addition to probe alone (positive control) and probe/MDM4 (negative control), a titration of linear p53(18-26) was included on every plate as an additional control. IC50 values were fit using either Prism or Collaborative Drug Discovery.

[1] = Pharmacokinetic parameters of Compound 35, intravenous, mice; assay type: in vivo; details: mouse, 1 mg/kg, plasma
Method: Mice were treated intravenously with Compound 35 (1 mg/kg) and plasma was collected at various timepoints to determine pharmacokinetic parameters. The change in mean plasma concentration over time is shown in FIG. 5, and all pharmacokinetic parameters obtained are summarized in Table 2: […]

Human MDM2 (HDM2) 1-116 = biological target: T2, Human MDM2 (HDM2) 1-116 (Homo sapiens, UniProt Q00987); assay: Fluorescence polarization assay 2, MDM2 (Table 4); assay type: binding; details: Table 4; fluorescence polarization; read-out: MDM2 IC50
T2 construct: Human MDM2 (HDM2) 1-116
Method: as §1, with “MDM2/p53” for “MDM4/p53”, “probe/MDM2” for “probe/MDM4”

T2 sequence (Q00987 1-116): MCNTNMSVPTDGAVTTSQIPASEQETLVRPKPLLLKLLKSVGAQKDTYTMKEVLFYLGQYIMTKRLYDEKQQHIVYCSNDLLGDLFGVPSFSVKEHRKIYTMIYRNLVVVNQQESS

pIC50 (Human MDM4 (HDM4) 1-114) | pIC50 (Human MDM2 (HDM2) 1-116) | SMILES | other results
< 6.82 | 7.00 to 7.30 | COCC[C@@H]1NC(=O)[C@H]2CCCN2C(=O)[C@H](Cc2ccccc2)N(C)C(=O)[C@H](Cc2ccc(Cl)cc2)NC(=O)[C@H](C(C)(C)C)NC(=O)[C@H](Cc2ccc(F)cc2)NC(=O)CN(CCOC)C(=O)[C@@H](C)N(C)C(=O)[C@H](Cc2cscn2)NC(=O)[C@H](C)N(C)C1=O [Compound 35, COCC[C@@H]1NC(=O)[C@H]2CCCN2C(=O)[C@H](CC2=CC=CC=C2)N(C)C(=O)[C@H](CC2=CC=C(Cl)C=C2)NC(=O)[C@@H](NC(=O)[C@H](CC2=CC=C(F)C=C2)NC(=O)CN(CCOC)C(=O)[C@@H](C)N(C)C(=O)[C@H](CC2=CSC=N2)NC(=O)[C@H](C)N(C)C1=O)C(C)(C)C] (cyclo([Ala(4-thiazolyl)][dNMeA][Nme][Phe(4-F)][Tle][Phe(4-Cl)][NMeF][dP][hSer](Me)[NMeA])) | AUC(0-inf) [1]: 1040 ng·h/mL; AUC(0-t) [1]: 1040 ng·h/mL; Cmax [1]: 3570 ng/mL; MRT inf [1]: 9 min; MRT last [1]: 7.8 min; Tmax [1]: 4.8 min; clearance [1]: 16 mL/min/kg; half-life [1]: 62.4 min; Vd ([1]; read-out: Vss): 0.14 L/kg
6.82 to 7.00 | 7.30 to 7.60 | COCC[C@@H]1NC(=O)[C@H]2CCCN2C(=O)[C@H](Cc2ccccc2)N(C)C(=O)[C@H](Cc2ccc(Cl)cc2)NC(=O)[C@H](C(C)C)N(C)C(=O)[C@H](Cc2ccc(F)cc2)NC(=O)CN(CCOC)C(=O)[C@@H](C)N(C)C(=O)[C@H](Cc2cscn2)NC(=O)[C@H](C)N(C)C1=O [Compound 43, COCC[C@@H]1NC(=O)[C@H]2CCCN2C(=O)[C@H](CC2=CC=CC=C2)N(C)C(=O)[C@H](CC2=CC=C(Cl)C=C2)NC(=O)[C@H](C(C)C)N(C)C(=O)[C@H](CC2=CC=C(F)C=C2)NC(=O)CN(CCOC)C(=O)[C@@H](C)N(C)C(=O)[C@H](CC2=CSC=N2)NC(=O)[C@H](C)N(C)C1=O] (cyclo([Ala(4-thiazolyl)][dNMeA][Nme][Phe(4-F)][NMeV][Phe(4-Cl)][NMeF][dP][hSer](Me)[NMeA])) | –
6.82 to 7.00 | 7.30 to 7.60 | CC[C@@H]1NC(=O)[C@H](Cc2ccc(F)cc2)NC(=O)CN(CCOC)C(=O)[C@@H](C)N(C)C(=O)[C@H](Cc2cscn2)NC(=O)[C@H](C)N(C)C(=O)[C@H](CCOC)NC(=O)[C@H]2CCCN2C(=O)[C@H](Cc2ccccc2)N(C)C(=O)[C@H](Cc2ccc(Cl)cc2)NC1=O [Compound 42, CC[C@@H]1NC(=O)[C@H](CC2=CC=C(F)C=C2)NC(=O)CN(CCOC)C(=O)[C@@H](C)N(C)C(=O)[C@H](CC2=CSC=N2)NC(=O)[C@H](C)N(C)C(=O)[C@H](CCOC)NC(=O)[C@H]2CCCN2C(=O)[C@H](CC2=CC=CC=C2)N(C)C(=O)[C@H](CC2=CC=C(Cl)C=C2)NC1=O] (cyclo([Abu][Phe(4-Cl)][NMeF][dP][hSer](Me)[NMeA][Ala(4-thiazolyl)][dNMeA][Nme][Phe(4-F)])) | –
< 6.82 | 7.00 to 7.30 | CCN1C(=O)[C@H](Cc2ccc(Cl)cc2)NC(=O)[C@H](C(C)(C)C)NC(=O)[C@H](Cc2ccc(F)cc2)NC(=O)CN(CCOC)C(=O)[C@@H](C)N(C)C(=O)[C@H](Cc2cscn2)NC(=O)[C@H](C)N(C)C(=O)[C@H](CCOC)NC(=O)[C@H]2CCCN2C(=O)[C@@H]1Cc1ccc(F)cc1 [Compound 44, CCN1[C@@H](Cc2ccc(F)cc2)C(=O)N2CCC[C@@H]2C(=O)N[C@@H](CCOC)C(=O)N(C)[C@@H](C)C(=O)N[C@@H](Cc2cscn2)C(=O)N(C)[C@H](C)C(=O)N(CCOC)CC(=O)N[C@@H](Cc2ccc(F)cc2)C(=O)N[C@H](C(=O)N[C@@H](Cc2ccc(Cl)cc2)C1=O)C(C)(C)C] (cyclo([Ala(4-thiazolyl)][dNMeA][Nme][Phe(4-F)][Tle][Phe(4-Cl)][NEtPhe(4-F)][dP][hSer](Me)[NMeA])) | –
< 6.82 | 7.30 to 7.60 | COCC[C@@H]1NC(=O)[C@H]2CCCN2C(=O)[C@H](Cc2ccccc2)N(C)C(=O)[C@H](Cc2ccc(Cl)cc2)NC(=O)[C@H](C)N(C)C(=O)[C@H](Cc2ccc(F)cc2)NC(=O)CN(CCOC)C(=O)[C@@H](C)N(C)C(=O)[C@H](Cc2cscn2)NC(=O)[C@H](C)N(C)C1=O [Compound 40, COCC[C@@H]1NC(=O)[C@H]2CCCN2C(=O)[C@H](CC2=CC=CC=C2)N(C)C(=O)[C@H](CC2=CC=C(Cl)C=C2)NC(=O)[C@H](C)N(C)C(=O)[C@H](CC2=CC=C(F)C=C2)NC(=O)CN(CCOC)C(=O)[C@@H](C)N(C)C(=O)[C@H](CC2=CSC=N2)NC(=O)[C@H](C)N(C)C1=O] (cyclo([Ala(4-thiazolyl)][dNMeA][Nme][Phe(4-F)][NMeA][Phe(4-Cl)][NMeF][dP][hSer](Me)[NMeA])) | –
7.00 to 7.30 | 7.30 to 7.60 | COCC[C@@H]1NC(=O)[C@H]2CCCN2C(=O)[C@H](Cc2ccc(F)cc2)N(C)C(=O)[C@H](Cc2ccc(Cl)cc2)NC(=O)[C@H](C(C)(C)C)NC(=O)[C@H](Cc2ccc(F)cc2)NC(=O)[C@H](C)N(C)C(=O)[C@@H](C)N(C)C(=O)[C@H](Cc2cscn2)NC(=O)[C@H](C)N(C)C1=O [Compound 38, COCC[C@@H]1NC(=O)[C@H]2CCCN2C(=O)[C@H](Cc2ccc(F)cc2)N(C)C(=O)[C@H](CC2=CC=C(Cl)C=C2)NC(=O)[C@@H](NC(=O)[C@H](Cc2ccc(F)cc2)NC(=O)[C@H](C)N(C)C(=O)[C@@H](C)N(C)C(=O)[C@H](CC2=CSC=N2)NC(=O)[C@H](C)N(C)C1=O)C(C)(C)C] (cyclo([Ala(4-thiazolyl)][dNMeA][NMeA][Phe(4-F)][Tle][Phe(4-Cl)][NMePhe(4-F)][dP][hSer](Me)[NMeA])) | –
> 7.30 | > 7.60 | COCC[C@@H]1NC(=O)[C@H]2CCCN2C(=O)[C@H](Cc2ccccc2)N(C)C(=O)[C@H](Cc2ccc(Cl)cc2)NC(=O)[C@H](C(C)C)NC(=O)[C@H](Cc2ccc(F)cc2)NC(=O)CN(CCOC)C(=O)[C@@H](C)N(C)C(=O)[C@H](Cc2cscn2)NC(=O)[C@H](C)N(C)C1=O [Compound 41, COCC[C@@H]1NC(=O)[C@H]2CCCN2C(=O)[C@H](CC2=CC=CC=C2)N(C)C(=O)[C@H](CC2=CC=C(Cl)C=C2)NC(=O)[C@@H](NC(=O)[C@H](CC2=CC=C(F)C=C2)NC(=O)CN(CCOC)C(=O)[C@@H](C)N(C)C(=O)[C@H](CC2=CSC=N2)NC(=O)[C@H](C)N(C)C1=O)C(C)C] (cyclo([Ala(4-thiazolyl)][dNMeA][Nme][Phe(4-F)]V[Phe(4-Cl)][NMeF][dP][hSer](Me)[NMeA])) | –
7.00 to 7.30 | > 7.60 | COCC[C@@H]1NC(=O)[C@H]2CCCN2C(=O)[C@H](Cc2ccccc2)N(C)C(=O)[C@H](Cc2ccc(Cl)cc2)NC(=O)[C@H](C(C)(C)C)NC(=O)[C@H](Cc2ccc(F)cc2)NC(=O)[C@H](C)N(C)C(=O)[C@@H](C)N(C)C(=O)[C@H](Cc2cscn2)NC(=O)[C@H](C)N(C)C1=O [Compound 36, COCC[C@@H]1NC(=O)[C@H]2CCCN2C(=O)[C@H](Cc2ccccc2)N(C)C(=O)[C@H](Cc2ccc(Cl)cc2)NC(=O)[C@@H](NC(=O)[C@H](Cc2ccc(F)cc2)NC(=O)[C@H](C)N(C)C(=O)[C@@H](C)N(C)C(=O)[C@H](CC2=CSC=N2)NC(=O)[C@H](C)N(C)C1=O)C(C)(C)C] (cyclo([Ala(4-thiazolyl)][dNMeA][NMeA][Phe(4-F)][Tle][Phe(4-Cl)][NMeF][dP][hSer](Me)[NMeA])) | –

SMILES | pIC50 (Human MDM4 (HDM4) 1-114) | pIC50 (Human MDM2 (HDM2) 1-116) | other results
COCC[C@@H]1NC(=O)[C@H]2CCCN2C(=O)[C@H](Cc2ccccc2)N(C)C(=O)[C@H](Cc2ccc(Cl)cc2)NC(=O)[C@H](C(C)(C)C)NC(=O)[C@H](Cc2ccc(F)cc2)NC(=O)CN(CCOC)C(=O)[C@@H](C)N(C)C(=O)[C@H](Cc2ccc(O)cc2)NC(=O)[C@H](C)N(C)C1=O [Compound 32, [H]Oc1ccc(C[C@@H]2NC(=O)[C@H](C)N(C)C(=O)[C@H](CCOC)NC(=O)[C@H]3CCCN3C(=O)[C@H](Cc3ccccc3)N(C)C(=O)[C@H](Cc3ccc(Cl)cc3)NC(=O)[C@@H](NC(=O)[C@H](Cc3ccc(F)cc3)NC(=O)CN(CCOC)C(=O)[C@@H](C)N(C)C2=O)C(C)(C)C)cc1] (cyclo([NMeA]Y[dNMeA][Nme][Phe(4-F)][Tle][Phe(4-Cl)][NMeF][dP][hSer](Me))) | < 6.82 | > 7.60 | –
COCC[C@@H]1NC(=O)[C@H]2CCCN2C(=O)[C@H](Cc2ccc(F)cc2)N(C)C(=O)[C@H](Cc2ccc(Cl)cc2)NC(=O)[C@@H]2CCCN2C(=O)[C@H](Cc2ccc(F)cc2)NC(=O)CN(CCOC)C(=O)[C@@H](C)N(C)C(=O)[C@H](Cc2cscn2)NC(=O)[C@H](C)N(C)C1=O [Compound 47, COCC[C@@H]1NC([C@H]2CCCN2C([C@@H](N(C([C@@H](NC([C@@H]3CCCN3C([C@@H](NC(CN(C([C@H](N(C([C@@H](NC([C@@H](N(C1=O)C)C)=O)Cc4ncsc4)=O)C)C)=O)CCOC)=O)Cc5ccc(F)cc5)=O)=O)Cc6ccc(Cl)cc6)=O)C)Cc7ccc(F)cc7)=O)=O] (cyclo([Ala(4-thiazolyl)][dNMeA][Nme][Phe(4-F)]P[Phe(4-Cl)][NMePhe(4-F)][dP][hSer](Me)[NMeA])) | 6.82 to 7.00 | 7.30 to 7.60 | –

Reference: US20220411471A1, “CELL-PERMEABLE CYCLIC PEPTIDES AND USES THEREOF” (Unnatural Products Inc., priority 2019, published 2022)
